# According to US20240053330A1, “MODULAR KINETICALLY-CONTROLLED FUNCTIONAL RNA CONSTRUCTS AND RELATED COMPOSITIONS, SYSTEMS, AND METHODS” (UNIVERSITY OF WASHINGTON, priority 2021, published 2024):
# Test system: J306 target with alternative PAM sequences
# Assay: CRISPRa at alternative PAM sites of the J3-J23117-mRFP1 reporter
# Assay type: cell-based, E. coli
# Description: FIGS. 31A and 31B illustrate that dxCas9(3.7) expands the range of targetable scRNA target sites by recognizing alternative PAMs. […] Reporter plasmids were constructed by replacing the AGG PAM site for the J306 target in the J3-J23117-mRFP1 reporter with alternative PAM sequences that have been previously reported to be recognized by dxCas9(3.7) in human cells (Hu, J. H. et al. Evolved Cas9 variants with broad PAM compatibility and high DNA specificity. Nature 556, 57-63 (2018), incorporated herein by reference in its entirety). The (−) sign indicates a control expressing the original reporter with the AGG PAM and the CRISPRa components with Sp-dCas9, the activation domain and no scRNA.
# Considering there is a limited number of genes with an appropriate NGG PAM site at precisely the optimal position upstream of the promoter, it was attempted to expand the scope of targetable PAM sites for CRISPRa. A recently characterized dCas9 variant, dxCas9(3.7), that has improved activity at a variety of non-NGG PAM sites including NGN, GAA, GAT, and CAA6 was used. […] PAM sites than NGG PAM sites (not shown), Accounting for the fact that dCas9 has some activity at non-NGG sites6 (FIG. 31), there are still on average ˜2.2-fold more dxCas9(3.7)-compatible PAM sites than dCas9-compatible PAM sites (not shown). […]
substance,measurement,setting,value
Sp-dCas9: S. pyogenes dCas9,CRISPRa activity (in words),"non-NGG PAM sites AGA, CGA, GGA, GGC, GGT, TGA",moderate CRISPRa activity
same,activation of AGT PAM site shifted into the peak activation range (in words),reporter with five bases inserted,ineffective
